Test results taken from patent US11124516B2, “Pyrrolo[1,2-A]pyrimidinyl carboxamide compounds and their use in the treatment of medical disorders” (Bial—Biotech Investments, Inc., priority 2016, dated 2021).
In brackets after ≈: the same amount, converted by molar mass.

Target: T1, glucocerebrosidase (Gcase) (Homo sapiens, UniProt P04062)
T1 sequence (P04062 40-536): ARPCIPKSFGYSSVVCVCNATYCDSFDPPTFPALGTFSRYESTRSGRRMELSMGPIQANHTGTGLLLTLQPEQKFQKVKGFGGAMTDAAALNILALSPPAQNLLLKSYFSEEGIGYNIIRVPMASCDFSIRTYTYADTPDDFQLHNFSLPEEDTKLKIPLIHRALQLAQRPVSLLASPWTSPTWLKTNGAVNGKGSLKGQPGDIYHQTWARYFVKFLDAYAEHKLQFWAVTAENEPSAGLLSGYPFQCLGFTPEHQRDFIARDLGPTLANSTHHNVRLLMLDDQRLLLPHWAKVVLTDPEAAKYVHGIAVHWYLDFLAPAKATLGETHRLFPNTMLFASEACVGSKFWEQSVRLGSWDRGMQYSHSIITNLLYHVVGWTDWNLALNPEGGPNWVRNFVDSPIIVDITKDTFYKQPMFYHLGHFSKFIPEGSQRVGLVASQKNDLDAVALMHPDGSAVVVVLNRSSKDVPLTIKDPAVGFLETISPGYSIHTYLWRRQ
Assay: Glucocerebrosidase (Gcase) activation assay, 4-methylumbelliferyl-beta-D-glucopyranoside substrate, fluorescence
Assay type: biochemical
Details: 0.25 h, pH 4.7, test compound at 0.1 μM, 10 nM GCase, 100 nM saposin C, read-out: Percent Gcase Activation 0.1 μM Test Compound
Protocol: The ability of exemplary compounds to activate glucocerebrosidase (Gcase) was measured.
A 484 μL aliquot of a 1.0 mg/mL solution of phosphatidylserine (PS) (Sigma P7769) in chloroform was evaporated under a stream of nitrogen for 1 hour. The lipid film was dissolved over 4 minutes of vigorous vortexing in 40 mL of 176 mM K2HPO4/50 mM citric acid (pH 4.7) containing 7.5 μL of triton X-100, resulting in a mixed micellar preparation with a composition of 0.32 mM triton and 0.37 mol % PS. 4-Methylumbelliferyl-beta-D-glucopyranoside (ACROS-337025000) was dissolved in the micellar solution to a final concentration of 2 mM for use as the reaction substrate.
Test compounds were diluted to the desired concentrations with dimethylsulfoxide (DMSO) from 10 mM stocks, and 0.41 μL of the DMSO compound mixture was added to 100 μL of micellar solution containing 10 nM GCase and 100 nM saposin C (Enzo ALX-201-262-C050). Pre-incubation was allowed to occur for 30 minutes at room temperature, after which the reaction was initiated by combining 25 μL of substrate solution with 25 μL of compound/GCase/saposin mixture. The reaction proceeded for 15 minutes at room temperature and was stopped by adding 150 μL of 1M glycine, pH 12.5. The endpoint of the reaction was monitored by measuring fluorescence intensity (excitation: 365 nm; emission: 440 nm) on a SpectraMax i3 instrument (Molecular Devices). Test compounds were screened at 1.0 and 0.1 μM final concentration, and subsequent 8-point dose response curves were obtained using 3-fold dilutions from a maximum final concentration of 5 μM.
For experiments in which the test compound was used at a concentration of 1.0 μM, the symbol “+” indicates less than 30% Gcase activation; the symbol “++” indicates Gcase activation in the range of 30% up to 60%; and the symbol “+++” indicates Gcase activation greater than 60%. For experiments in which the test compound was used at a concentration of 0.1 μM, the symbol “*” indicates less than 10% Gcase activation; the symbol “**” indicates Gcase activation in the range of 10% up to 20%; and the symbol “***” indicates greater than 20% Gcase activation.

Compound	activation at 0.1 µM
Cc1cc(C)n2c(C)cc(C(=O)N[C@@H](C)C3CC3)c2n1 [III-26]	10 to 20%
Cc1cc(C)n2cc(C)c(C(=O)N[C@@H](C)C3CC3)c2n1 [III-27]	10 to 20%
Cc1cc(-c2cocn2)nc2c(C(=O)N[C@H]3CCCc4ccccc43)ccn12 [III-28]	< 10%
Cc1ccnc2c(C(=O)NC3(c4ccccc4OC4CC4)CC3)ccn12 [III-34]	< 10%
Cc1cc(N2CCOCC2)nc2c(C(=O)NC(C)(C)C3CC3)ccn12 [III-35]	10 to 20%
Cc1cc(N2CCC(F)(F)CC2)nc2c(C(=O)NC(C)(C)C3CC3)ccn12 [III-44]	10 to 20%
Cc1cc(NC2CC3CCC(C2)O3)nc2c(C(=O)NC(C)(C)C3CC3)ccn12 (stereo not drawn) [III-45]	< 10%
Cc1cc(C)n2ccc(C(=O)NC(C)c3ccccc3F)c2n1 (stereo not drawn) [IV-108]	10 to 20%

More lines, now with the values ahead:

activation at 0.1 µM	Compound
< 10%	Cc1cc(C)n2ccc(C(=O)NC3(c4ccc(F)cc4)CCOCC3)c2n1 [III-29]
> 20%	Cc1cc(-c2ccc(F)cc2)nc2c(C(=O)N[C@@H](C)C3CC3)ccn12 [III-30]
< 10%	Cc1cc(-c2ccc(F)cc2)n2ccc(C(=O)N[C@@H](C)C3CC3)c2n1 [III-31]
< 10%	Cc1cc(C2CCOCC2)nc2c(C(=O)NC(C)(C)C3CC3)ccn12 [III-36]
10 to 20%	Cc1cc(NC2CCOCC2)nc2c(C(=O)NC(C)(C)C3CC3)ccn12 [III-38]
> 20%	Cc1cc(-c2ccccn2)nc2c(C(=O)NC(C)(C)C3CC3)ccn12 [III-39]
10 to 20%	Cc1cc(-c2ccncc2)nc2c(C(=O)NC(C)(C)C3CC3)ccn12 [III-40]
> 20%	Cc1cc(-c2cccnc2)nc2c(C(=O)NC(C)(C)C3CC3)ccn12 [III-41]
10 to 20%	Cc1cc(-c2cncnc2)nc2c(C(=O)NC(C)(C)C3CC3)ccn12 [III-42]
< 10%	CC(C)(NC(=O)c1ccn2ccc(-c3ccc(F)cc3)nc12)C1CC1 [III-46]
< 10%	C[C@H](NC(=O)c1ccn2ccc(-c3ccc(F)cc3)nc12)C1CC1 [III-47]
10 to 20%	CO[C@H]1CC[C@H](NC(=O)c2ccn3c(C)cc(-c4ccc(F)cc4)nc23)CC1 [III-48]
< 10%	C[C@H](NC(=O)c1ccn2cc(-c3ccc(F)cc3)cnc12)C1CC1 [III-49]

Same assay, conditions: 0.25 h, pH 4.7, test compound at 1.0 μM, 10 nM GCase, 100 nM saposin C, read-out: Percent Gcase Activation 1 μM Test Compound

Compound	activation at 1 µM
Cc1cc(C)n2c(C)cc(C(=O)N[C@@H](C)C3CC3)c2n1 [III-26]	> 60%
Cc1cc(C)n2cc(C)c(C(=O)N[C@@H](C)C3CC3)c2n1 [III-27]	> 60%
Cc1cc(-c2cocn2)nc2c(C(=O)N[C@H]3CCCc4ccccc43)ccn12 [III-28]	30 to 60%
Cc1ccnc2c(C(=O)NC3(c4ccccc4OC4CC4)CC3)ccn12 [III-34]	30 to 60%
Cc1cc(N2CCOCC2)nc2c(C(=O)NC(C)(C)C3CC3)ccn12 [III-35]	> 60%
Cc1cc(N2CCC(F)(F)CC2)nc2c(C(=O)NC(C)(C)C3CC3)ccn12 [III-44]	> 60%
Cc1cc(NC2CC3CCC(C2)O3)nc2c(C(=O)NC(C)(C)C3CC3)ccn12 (stereo not drawn) [III-45]	30 to 60%
Cc1cc(C)n2ccc(C(=O)NC(C)c3ccccc3F)c2n1 (stereo not drawn) [IV-108]	> 60%

Continued, values first:

activation at 1 µM	Compound
30 to 60%	Cc1cc(C)n2ccc(C(=O)NC3(c4ccc(F)cc4)CCOCC3)c2n1 [III-29]
> 60%	Cc1cc(-c2ccc(F)cc2)nc2c(C(=O)N[C@@H](C)C3CC3)ccn12 [III-30]
30 to 60%	Cc1cc(-c2ccc(F)cc2)n2ccc(C(=O)N[C@@H](C)C3CC3)c2n1 [III-31]
30 to 60%	Cc1cc(C2CCOCC2)nc2c(C(=O)NC(C)(C)C3CC3)ccn12 [III-36]
> 60%	Cc1cc(NC2CCOCC2)nc2c(C(=O)NC(C)(C)C3CC3)ccn12 [III-38]
> 60%	Cc1cc(-c2ccccn2)nc2c(C(=O)NC(C)(C)C3CC3)ccn12 [III-39]
> 60%	Cc1cc(-c2ccncc2)nc2c(C(=O)NC(C)(C)C3CC3)ccn12 [III-40]
> 60%	Cc1cc(-c2cccnc2)nc2c(C(=O)NC(C)(C)C3CC3)ccn12 [III-41]
> 60%	Cc1cc(-c2cncnc2)nc2c(C(=O)NC(C)(C)C3CC3)ccn12 [III-42]
30 to 60%	CC(C)(NC(=O)c1ccn2ccc(-c3ccc(F)cc3)nc12)C1CC1 [III-46]
30 to 60%	C[C@H](NC(=O)c1ccn2ccc(-c3ccc(F)cc3)nc12)C1CC1 [III-47]
> 60%	CO[C@H]1CC[C@H](NC(=O)c2ccn3c(C)cc(-c4ccc(F)cc4)nc23)CC1 [III-48]
< 30%	C[C@H](NC(=O)c1ccn2cc(-c3ccc(F)cc3)cnc12)C1CC1 [III-49]

System: not listed separately
Assay: Compound solubility in water
Assay type: physicochemical
Details: not given

Compound	solubility
Cc1cc(C)n2c(C)cc(C(=O)N[C@@H](C)C3CC3)c2n1 [III-26]	8.6 µg/mL (≈ 31.7 µM)
Cc1cc(C)n2cc(C)c(C(=O)N[C@@H](C)C3CC3)c2n1 [III-27]	8.6 µg/mL (≈ 31.7 µM)
Cc1cc(-c2cocn2)nc2c(C(=O)N[C@H]3CCCc4ccccc43)ccn12 [III-28]	1.4 µg/mL (≈ 3.76 µM)
Cc1ccnc2c(C(=O)NC3(c4ccccc4OC4CC4)CC3)ccn12 [III-34]	6.3 µg/mL (≈ 18.1 µM)
Cc1cc(N2CCOCC2)nc2c(C(=O)NC(C)(C)C3CC3)ccn12 [III-35]	14 µg/mL (≈ 40.9 µM)
Cc1cc(N2CCC(F)(F)CC2)nc2c(C(=O)NC(C)(C)C3CC3)ccn12 [III-44]	1.4 µg/mL (≈ 3.72 µM)
Cc1cc(NC2CC3CCC(C2)O3)nc2c(C(=O)NC(C)(C)C3CC3)ccn12 (stereo not drawn) [III-45]	12.3 µg/mL (≈ 32.2 µM)
Cc1cc(C)n2ccc(C(=O)NC(Cc3ccccc3)c3ccccc3)c2n1 (stereo not drawn) [IV-38]	0.2 µg/mL (≈ 0.541 µM)

The remaining lines, values ahead:

solubility	Compound
2.4 µg/mL (≈ 6.53 µM)	Cc1cc(C)n2ccc(C(=O)NC3(c4ccc(F)cc4)CCOCC3)c2n1 [III-29]
0.1 µg/mL (≈ 0.296 µM)	Cc1cc(-c2ccc(F)cc2)nc2c(C(=O)N[C@@H](C)C3CC3)ccn12 [III-30]
0.7 µg/mL (≈ 2.07 µM)	Cc1cc(-c2ccc(F)cc2)n2ccc(C(=O)N[C@@H](C)C3CC3)c2n1 [III-31]
21.3 µg/mL (≈ 62.4 µM)	Cc1cc(C2CCOCC2)nc2c(C(=O)NC(C)(C)C3CC3)ccn12 [III-36]
10.1 µg/mL (≈ 28.3 µM)	Cc1cc(NC2CCOCC2)nc2c(C(=O)NC(C)(C)C3CC3)ccn12 [III-38]
0.7 µg/mL (≈ 2.09 µM)	Cc1cc(-c2ccccn2)nc2c(C(=O)NC(C)(C)C3CC3)ccn12 [III-39]
3.5 µg/mL (≈ 10.5 µM)	Cc1cc(-c2ccncc2)nc2c(C(=O)NC(C)(C)C3CC3)ccn12 [III-40]
2.5 µg/mL (≈ 7.48 µM)	Cc1cc(-c2cccnc2)nc2c(C(=O)NC(C)(C)C3CC3)ccn12 [III-41]
3.4 µg/mL (≈ 10.1 µM)	Cc1cc(-c2cncnc2)nc2c(C(=O)NC(C)(C)C3CC3)ccn12 [III-42]
0.3 µg/mL (≈ 0.889 µM)	CC(C)(NC(=O)c1ccn2ccc(-c3ccc(F)cc3)nc12)C1CC1 [III-46]
0.1 µg/mL (≈ 0.309 µM)	C[C@H](NC(=O)c1ccn2ccc(-c3ccc(F)cc3)nc12)C1CC1 [III-47]
0.9 µg/mL (≈ 2.36 µM)	CO[C@H]1CC[C@H](NC(=O)c2ccn3c(C)cc(-c4ccc(F)cc4)nc23)CC1 [III-48]
0.3 µg/mL (≈ 0.928 µM)	C[C@H](NC(=O)c1ccn2cc(-c3ccc(F)cc3)cnc12)C1CC1 [III-49]
